Like-named read-outs stand apart in the source and are kept apart here.
Tests used:
[1] = molecular target: T1, isolated recombinant JAK2 kinase domain (Homo sapiens, UniProt O60674); assay: JAK enzyme assay, JAK2 kinase domain (Caliper LabChip); assay type: biochemical; settings: 0.2 nM JAK2, ATP 25 μM, Morrison tight binding model
T1 construct: isolated recombinant JAK1 and JAK2 kinase domain
Procedure: (§1) JAK Enzyme Assays were Carried Out as Follows:
(§2) The activity of the isolated recombinant JAK1 and JAK2 kinase domain was measured by monitoring phosphorylation of a peptide derived from JAK3 ([…] fluorescently labeled on the N-terminus with 5-carboxyfluorescein) using the Caliper LabChip® technology (Caliper Life Sciences, Hopkinton, Mass.). To determine inhibition constants (K), compounds were diluted serially in DMSO and added to 50 μL kinase reactions containing purified enzyme (1.5 nM JAK1, or 0.2 nM JAK2), 100 mM HEPES buffer (pH 7.2), 0.015% Brij-35, 1.5 μM peptide substrate, ATP (25 μM), 10 mM MgCl2, 4 mM DTT at a final DMSO concentration of 2%.
(§3) Reactions were incubated at 22° C. in 384-well polypropylene microtiter plates for 30 minutes and then stopped by addition of 25 µL of an EDTA containing solution (100 mM HEPES buffer (pH 7.2), 0.015% Brij-35, 150 mM EDTA), resulting in a final EDTA concentration of 50 mM. After termination of the kinase reaction, the proportion of phosphorylated product was determined as a fraction of total peptide substrate using the Caliper LabChip® 3000 according to the manufacturer's specifications. K values were then determined using the Morrison tight binding model (Morrison, J. F., Biochim. Biophys. Acta. 185:269-296 (1969); William, J. W. and Morrison, J. F., Meth. Enzymol., 63:437-467 (1979)) modified for ATP-competitive inhibition [Ki=Ki, app/(1+[ATP]/Km,app)].

[2] = tested on: JAK1-dependent STAT6 phosphorylation downstream of IL-13 stimulation, BEAS-2B human bronchial epithelial cells; assay: JAK1 pathway assay in cell lines: IL-13 stimulated STAT6 phosphorylation in BEAS-2B cells (MSD); assay type: cell-based; settings: IL-13 stimulation 15 min at EC90, read-out: IL-13 p-STAT6 BEAS-2B IC50
Procedure: JAK1 Pathway Assay in Cell Lines was Carried Out as Follows:
Inhibitor potency (EC50) was determined in cell-based assays designed to measure JAK1 dependent STAT phosphorylation. As noted above, inhibition of IL-4, IL-13, and IL-9 signaling by blocking the Jak/Stat signaling pathway can alleviate asthmatic symptoms in pre-clinical lung inflammation models (Mathew et al., 2001, J Exp Med 193(9): 1087-1096; Kudlacz et. al., 2008, Eur J. Pharmacol 582(1-3): 154-161).
In one assay approach, TF-1 human erythroleukemia cells obtained from the American Type Culture Collection (ATCC; Manassas, Va.) were used to measure JAK1-dependent STAT6 phosphorylation downstream of IL-13 stimulation. Prior to use in the assays, TF-1 cells were starved of GM-CSF overnight in OptiMEM medium (Life Technologies, Grand Island, N.Y.) supplemented with 0.5% charcoal/dextran stripped fetal bovine serum (FBS), 0.1 mM non-essential amino acids (NEAA), and 1 mM sodium pyruvate. The assays were run in 384-well plates in serum-free OptiMEM medium using 300,000 cells per well. In a second assay approach, BEAS-2B human bronchial epithelial cells obtained from ATCC were plated at 100,000 cells per well of a 96-well plate one day prior to the experiment. The BEAS-2B assay was run in complete growth medium (bronchial epithelial basal medium plus bulletkit; Lonza; Basel, Switzerland).
Test compounds were serially diluted 1:2 in DMSO and then diluted 1:50 in medium just before use. Diluted compounds were added to the cells, for a final DMSO concentration of […], and incubated for 30 m (for the TF-1 assay) or […] (for the BEAS-2B assay) at 37° C. Then, cells were stimulated with human recombinant cytokine at their respective EC90 concentrations, as previously determined for each individual lot. Cells were stimulated with IL-13 (R&D Systems, Minneapolis, Minn.) for 15 min at 37° C. The TF-1 cell reactions were stopped by the direct addition of 10× lysis buffer (Cell Signaling Technologies, Danvers, Mass.), whereas the BEAS-2B cell incubations were halted by the removal of medium and addition of 1× lysis buffer. The resultant samples were frozen in the plates at −80° C. Compound mediated inhibition of STAT6 phosphorylation was measured in the cell lysates using MesoScale Discovery (MSD) technology (Gaithersburg, Md.).

[3] = molecular target: T2, isolated recombinant JAK1 kinase domain (Homo sapiens, UniProt P23458); assay: JAK enzyme assay, JAK1 kinase domain (Caliper LabChip); assay type: biochemical; settings: 1.5 nM JAK1, ATP 25 μM, Morrison tight binding model
T2 construct: isolated recombinant JAK1 and JAK2 kinase domain
Procedure: as §1, §2, §3

T2 sequence (P23458 875-1153 limits assumed): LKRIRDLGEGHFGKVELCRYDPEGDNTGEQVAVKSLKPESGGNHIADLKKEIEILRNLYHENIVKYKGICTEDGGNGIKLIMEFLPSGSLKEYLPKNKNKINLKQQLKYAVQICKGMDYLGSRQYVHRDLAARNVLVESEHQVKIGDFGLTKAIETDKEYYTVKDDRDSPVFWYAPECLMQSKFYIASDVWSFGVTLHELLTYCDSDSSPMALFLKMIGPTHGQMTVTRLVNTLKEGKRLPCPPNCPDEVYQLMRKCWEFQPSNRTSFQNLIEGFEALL
T1 sequence (O60674 849-1124 limits assumed): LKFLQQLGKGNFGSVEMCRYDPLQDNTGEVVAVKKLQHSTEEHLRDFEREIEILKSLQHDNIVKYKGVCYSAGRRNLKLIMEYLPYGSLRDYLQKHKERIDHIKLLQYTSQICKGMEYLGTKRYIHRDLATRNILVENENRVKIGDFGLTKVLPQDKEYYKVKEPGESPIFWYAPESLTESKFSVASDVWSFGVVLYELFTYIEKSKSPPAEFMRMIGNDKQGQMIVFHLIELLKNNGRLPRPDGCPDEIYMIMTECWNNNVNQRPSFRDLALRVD

Row | SMILES | Ki [1] | IC50 [2] | Ki [3] | IC50 ([2]; Homo sapiens, BEAS-2B, […])
1 | O=C(Nc1cn(C2CCN(C3COC3)C2=O)nc1-c1cc(Cl)ccc1OC(F)F)c1cnn2cccnc12 (single isomer, unassigned) [Example 23, N-[3-[5-chloro-2-(difluoromethoxy)phenyl]-1-[1-(oxetan-3-yl)-2-oxo-pyrrolidin-3-yl]pyrazol-4-yl]pyrazolo[1,5-a]pyrimidine-3-carboxamide] | 0.54 nM | 23 nM | 0.51 nM | –
2 | O=C(Nc1cn(C2CCN(C3COC3)C2=O)nc1-c1cc(Cl)ccc1OC(F)F)c1cnn2cccnc12 (single isomer, unassigned) [Example 24, N-[3-[5-chloro-2-(difluoromethoxy)phenyl]-1-[1-(oxetan-3-yl)-2-oxo-pyrrolidin-3-yl]pyrazol-4-yl]pyrazolo[1,5-a]pyrimidine-3-carboxamide] | 0.98 nM | 57 nM | 3.9 nM | –
3 | O=C(Nc1cn(C2CCOC2=O)nc1-c1cc(Cl)ccc1OC(F)F)c1cnn2cccnc12 (single isomer, unassigned) [Example 27, N-[3-[5-chloro-2-(difluoromethoxy)phenyl]-1-(2-oxotetrahydrofuran-3-yl)pyrazol-4-yl]pyrazolo[1,5-a]pyrimidine-3-carboxamide] | 0.5 nM | 24 nM | 0.77 nM | –
4 | O=C(Nc1cn(C2CCOC2=O)nc1-c1cc(Cl)ccc1OC(F)F)c1cnn2cccnc12 (single isomer, unassigned) [Example 28, N-[3-[5-chloro-2-(difluoromethoxy)phenyl]-1-(2-oxotetrahydrofuran-3-yl)pyrazol-4-yl]pyrazolo[1,5-a]pyrimidine-3-carboxamide] | 0.2 nM | 11 nM | 0.35 nM | –
5 | CSc1ccc(OC(F)F)c(-c2nn(C3CCOC3=O)cc2NC(=O)c2cnn3cccnc23)c1 (single isomer, unassigned) [Example 29, N-[3-[2-(difluoromethoxy)-5-methylsulfanyl-phenyl]-1-(2-oxotetrahydrofuran-3-yl)pyrazol-4-yl]pyrazolo[1,5-a]pyrimidine-3-carboxamide] | 0.15 nM | – | 0.3 nM | 9.2 nM
6 | CSc1ccc(OC(F)F)c(-c2nn(C3CCOC3=O)cc2NC(=O)c2cnn3cccnc23)c1 (single isomer, unassigned) [Example 30, N-[3-[2-(difluoromethoxy)-5-methylsulfanyl-phenyl]-1-(2-oxotetrahydrofuran-3-yl)pyrazol-4-yl]pyrazolo[1,5-a]pyrimidine-3-carboxamide] | 0.096 nM | 11 nM | 0.15 nM | –
7 | O=C(Nc1cn(C2CCOC2=O)nc1-c1cc(SC(F)F)ccc1OC(F)F)c1cnn2cccnc12 (single isomer, unassigned) [Example 31, N-[3-[2-(difluoromethoxy)-5-(difluoromethyl-sulfanyl)phenyl]-1-(2-oxotetrahydrofuran-3-yl)pyrazol-4-yl]pyrazolo[1,5-a]pyrimidine-3-carboxamide] | 0.4 nM | 16 nM | 0.7 nM | –
8 | O=C(Nc1cn(C2CCOC2=O)nc1-c1cc(SC(F)F)ccc1OC(F)F)c1cnn2cccnc12 (single isomer, unassigned) [Example 32, N-[3-[2-(difluoromethoxy)-5-(difluoromethyl-sulfanyl)phenyl]-1-(2-oxotetrahydrofuran-3-yl)pyrazol-4-yl]pyrazolo[1,5-a]pyrimidine-3-carboxamide] | 0.11 nM | 6.6 nM | 0.17 nM | –
9 | O=C(Nc1cn(C2CCOC2=O)nc1-c1cc(OC(F)F)ccc1OC(F)F)c1cnn2cccnc12 (single isomer, unassigned) [Example 36, N-[3-[2,5-bis(difluoromethoxy)phenyl]-1-(2-oxotetrahydrofuran-3-yl)pyrazol-4-yl]pyrazolo[1,5-a]pyrimidine-3-carboxamide] | 0.4 nM | – | 0.65 nM | 18 nM
10 | O=C(Nc1cn(C2CCOC2=O)nc1-c1cc(OC(F)F)ccc1OC(F)F)c1cnn2cccnc12 (single isomer, unassigned) [Example 37, N-[3-[2,5-bis(difluoromethoxy)phenyl]-1-(2-oxotetrahydrofuran-3-yl)pyrazol-4-yl]pyrazolo[1,5-a]pyrimidine-3-carboxamide] | 0.18 nM | 14 nM | 0.26 nM | –
11 | CS(=O)(=O)c1ccc(OC(F)F)c(-c2nn(C3CCOC3=O)cc2NC(=O)c2cnn3cccnc23)c1 (single isomer, unassigned) [Example 40, N-[3-[2-(difluoromethoxy)-5-methylsulfonyl-phenyl]-1-(2-oxotetrahydrofuran-3-yl)pyrazol-4-yl]pyrazolo[1,5-a]pyrimidine-3-carboxamide] | 0.62 nM | – | 1.1 nM | 120 nM
12 | CS(=O)(=O)c1ccc(OC(F)F)c(-c2nn(C3CCOC3=O)cc2NC(=O)c2cnn3cccnc23)c1 (single isomer, unassigned) [Example 41, N-[3-[2-(difluoromethoxy)-5-methylsulfonyl-phenyl]-1-(2-oxotetrahydrofuran-3-yl)pyrazol-4-yl] pyrazolo[1,5-a]pyrimidine-3-carboxamide] | 0.23 nM | 99 nM | 0.4 nM | –
13 | CN1CC[C@H](n2cc(NC(=O)c3cnn4cccnc34)c(-c3cc(Cl)ccc3OC(F)F)n2)C1=O (stereo in doubt) [Example 2, N-[3-[5-chloro-2-(difluoromethoxy)phenyl]-1-[rac-(3S)-1-methyl-2-oxo-pyrrolidin-3-yl]pyrazol-4-yl]pyrazolo[1,5-a]pyrimidine-3-carboxamide] | 0.4 nM | – | 0.21 nM | 12 nM
14 | CN1CC[C@@H](n2cc(NC(=O)c3cnn4cccnc34)c(-c3cc(Cl)ccc3OC(F)F)n2)C1=O (stereo in doubt) [Example 3, N-[3-[5-chloro-2-(difluoromethoxy)phenyl]-1-[rac-(3R)-1-methyl-2-oxo-pyrrolidin-3-yl]pyrazol-4-yl]pyrazolo[1,5-a]pyrimidine-3-carboxamide] | 0.81 nM | – | 2.5 nM | 50 nM
15 | Cn1[nH]cc(-n2cc(NC(=O)c3cnn4cccnc34)c(-c3cc(Cl)ccc3OC(F)F)n2)c1=O [Example 26] | 0.14 nM | – | 1.4 nM | 280 nM

— patent US20200339604A1, “PYRAZOLOPYRIMIDINE COMPOUNDS AS JAK INHIBITORS” (Genentech, Inc., priority 2018, published 2020)
